Target: T1, Periconia sp. BGLI (recombinant β-glucosidase, bgl1) (Periconia sp. BCC 2871, UniProt A9UIG0, T284I/N305T)
T1 construct: full-length bgl1 (2601 bp cDNA, own signal peptide) expressed in T. reesei QM9414 under tef1 promoter, secreted, culture supernatant; predicted about 95 kDa, glycosylated
Test: MUG zymogram after native PAGE of culture supernatant
Type: biochemical
Settings: 5 mM MUG, 50 mM sodium citrate, pH 5.0, 70 °C, 10 min
Description: MUG zymogram after native PAGE of culture supernatant on Periconia sp.

T1 sequence (A9UIG0 entry or part of it T284I/N305T): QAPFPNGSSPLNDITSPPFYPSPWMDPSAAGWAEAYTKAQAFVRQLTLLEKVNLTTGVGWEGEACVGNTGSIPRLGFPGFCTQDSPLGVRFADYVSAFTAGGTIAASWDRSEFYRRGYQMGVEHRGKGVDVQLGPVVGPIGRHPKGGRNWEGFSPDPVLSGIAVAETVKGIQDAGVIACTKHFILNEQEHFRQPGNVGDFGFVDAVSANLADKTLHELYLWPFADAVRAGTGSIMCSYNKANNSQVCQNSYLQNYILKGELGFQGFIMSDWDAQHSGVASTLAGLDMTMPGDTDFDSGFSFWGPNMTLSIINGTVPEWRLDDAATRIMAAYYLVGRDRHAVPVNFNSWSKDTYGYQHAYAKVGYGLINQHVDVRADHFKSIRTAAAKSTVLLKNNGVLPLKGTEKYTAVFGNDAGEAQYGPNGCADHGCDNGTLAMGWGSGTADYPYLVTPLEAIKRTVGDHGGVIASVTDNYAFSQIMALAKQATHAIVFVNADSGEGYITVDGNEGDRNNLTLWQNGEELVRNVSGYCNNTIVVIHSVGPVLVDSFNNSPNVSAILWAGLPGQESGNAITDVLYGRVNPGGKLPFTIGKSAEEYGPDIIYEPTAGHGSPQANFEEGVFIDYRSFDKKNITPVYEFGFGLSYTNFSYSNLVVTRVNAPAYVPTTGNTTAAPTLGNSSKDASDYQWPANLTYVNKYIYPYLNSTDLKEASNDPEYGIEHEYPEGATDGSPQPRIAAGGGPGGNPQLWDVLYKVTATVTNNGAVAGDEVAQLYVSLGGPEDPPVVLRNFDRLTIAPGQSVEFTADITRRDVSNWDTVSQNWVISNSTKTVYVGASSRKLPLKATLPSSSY

`Cc1cc(=O)oc2cc(O[C@@H]3O[C@H](CO)[C@@H](O)[C@H](O)[C@H]3O)ccc12` [4-methylumbelliferyl β-D-glucopyranoside] was tested, and the “MUG zymogram after native PAGE of culture supernatant” value was “second active β- glucosidase with higher molecular weight was only obtained from the transformants”.
